In patent US9850283B2, “Macrocyclic inhibitors of the PD-1/PD-L1 and CD80(B7-1)/PD-L1 protein/protein interactions” (BRISTOL-MYERS SQUIBB COMPANY, priority 2013, dated 2017):
Positions of bridges follow the written chain, without caps; N, C: chain ends. Non-standard residues stand in square brackets, D forms with d. Residues, ends and D or L forms follow the SMILES beside them. ξ: configuration not given here. *: point of attachment. Pro(3S-OH) = O=C(O)[C@H]1NCC[C@@H]1O; Bta = N[C@@H](Cc1csc2ccccc12)C(=O)O; ξPro(4R-OH) = O=C(O)C1C[C@@H](O)CN1; Hyp = O=C(O)[C@@H]1C[C@@H](O)CN1; NMeNle = CCCC[C@H](NC)C(=O)O; Pip = O=C(O)[C@@H]1CCCCN1; NMeA = CN[C@@H](C)C(=O)O; Orn = NCCC[C@H](N)C(=O)O; Dab = NCC[C@H](N)C(=O)O; Dap = NC[C@H](N)C(=O)O; Alloc = C=CCOC(=O)*

What was measured:
Human PD-L1/PD-1 = target: T1, Human PD-L1/PD-1 (Homo sapiens, UniProt Q9NZQ7); experiment: HTRF PD-1-Ig/PD-L1-His binding assay (human PD-L1); settings: cluster symbol; read-out: HTRF IC50 cluster
T1 construct: made in house; host or cells: HEK293T
T1 sequence (Q9NZQ7 with tags, fused parts or gaps): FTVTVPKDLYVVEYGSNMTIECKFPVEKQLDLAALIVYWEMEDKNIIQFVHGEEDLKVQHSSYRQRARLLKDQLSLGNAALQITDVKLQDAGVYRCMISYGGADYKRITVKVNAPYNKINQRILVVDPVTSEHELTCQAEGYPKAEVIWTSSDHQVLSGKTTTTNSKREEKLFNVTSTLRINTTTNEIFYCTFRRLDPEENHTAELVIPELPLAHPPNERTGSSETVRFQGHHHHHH
Procedure, shortened: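 Steps: truncated PD-1-Ig and PD-L1-His fusions are incubated in dPBS containing 0.1% (w/v) BSA and 0.05% (v/v) Tween-20. Detection antibodies are then added (Eu cryptate anti-Ig at 1 nM final, APC anti-His at 20 nM final), and time-resolved FRET is measured.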

[1] = target: T2, LK35.2-hPD-L1 cells / PE-labeled PD-1-Ig (Homo sapiens, UniProt Q9NZQ7); experiment: LK35.2-hPD-L1 cell binding high-content screening assay; type: cell-based; settings: cluster symbol; cell line of CBA not given (LK35.2-hPD-L1 or 293T-hPD-L1); read-out: CBA IC50 cluster
T2 construct: expressed in transfected cells; host or cells: LK35.2 mouse B cell line
T2 sequence (Q9NZQ7 19-290): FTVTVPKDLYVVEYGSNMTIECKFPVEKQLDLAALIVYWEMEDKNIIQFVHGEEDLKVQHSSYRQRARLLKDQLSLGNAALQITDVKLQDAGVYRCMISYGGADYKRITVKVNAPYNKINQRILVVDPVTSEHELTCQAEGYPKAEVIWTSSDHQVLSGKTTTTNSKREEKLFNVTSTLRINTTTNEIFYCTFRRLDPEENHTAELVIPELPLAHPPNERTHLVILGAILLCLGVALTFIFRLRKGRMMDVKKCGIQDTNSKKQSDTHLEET
Procedure, shortened: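 Mouse LK35.2 B cells stably overexpressing human PD-L1 were cultured overnight in RPMI with 10% FCS, then given compound and PE-labeled human PD-1-Ig (1 nM final) for 1 h at 37 °C. After three dPBS washes, bound fluorescence was quantified by high-content imaging.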

Row | IC50 (Human PD-L1/PD-1) [nM] | IC50 [1] [nM] | SMILES
1 | 0.385 to 6.74 | 0.158 to 4.71 | CCCC[C@H]1C(=O)N(C)[C@@H](CCCC)C(=O)N[C@@H](CN)C(=O)N[C@H](C(=O)NCC(N)=O)CSCC(=O)N[C@@H](Cc2ccc(O)cc2)C(=O)N(C)[C@@H](C)C(=O)N[C@@H](CC(N)=O)C(=O)N2CCC[C@H]2C(=O)N[C@@H](CN)C(=O)N[C@@H](CC(=O)O)C(=O)N2C[C@H](O)C[C@H]2C(=O)N[C@@H](Cc2c[nH]c3ccccc23)C(=O)N[C@@H](CCN)C(=O)N[C@@H](Cc2csc3ccccc23)C(=O)N1C [Example 1226] ({CH2CO}-Y[NMeA]NP[Dap]D[Hyp]W[Dab][Bta][NMeNle][NMeNle][Dap]CG-NH2; thioether N-14)
2 | > 30.5 | > 74.3 | CCCC[C@H]1C(=O)N(C)[C@@H](CCCC)C(=O)N[C@@H](CCCNC(=N)N)C(=O)N[C@H](C(=O)NCC(N)=O)CSCC(=O)N[C@@H](Cc2ccc(O)cc2)C(=O)N2CC[C@H](O)[C@H]2C(=O)N[C@@H](CC(N)=O)C(=O)N2CCC[C@H]2C(=O)N[C@@H](Cc2cnc[nH]2)C(=O)N[C@@H](CC(C)C)C(=O)N2CCC[C@H]2C(=O)N[C@@H](Cc2c[nH]c3ccccc23)C(=O)N[C@@H](CO)C(=O)N[C@@H](Cc2csc3ccccc23)C(=O)N1C [Example 1227] ({CH2CO}-Y[Pro(3S-OH)]NPHLPWS[Bta][NMeNle][NMeNle]RCG-NH2; thioether N-14)
3 | 6.76 to 30.3 | 4.78 to 72.9 | CCCC[C@H]1C(=O)N(C)[C@@H](CCCC)C(=O)N[C@@H](CN)C(=O)N[C@H](C(=O)NCC(N)=O)CSCC(=O)N[C@@H](Cc2ccc(O)cc2)C(=O)N2CCC[C@H]2C(=O)N[C@@H](CC(=O)O)C(=O)N2CCC[C@H]2C(=O)N[C@@H](CN)C(=O)N[C@@H](CCC(N)=O)C(=O)N2C[C@H](O)CC2C(=O)N[C@@H](Cc2c[nH]c3ccccc23)C(=O)N[C@@H](CCN)C(=O)N[C@@H](Cc2csc3ccccc23)C(=O)N1C (stereo partly drawn) [Example 1228] ({CH2CO}-YPDP[Dap]Q[ξPro(4R-OH)]W[Dab][Bta][NMeNle][NMeNle][Dap]CG-NH2; thioether N-14)
4 | 6.76 to 30.3 | 4.78 to 72.9 | CCCC[C@H]1C(=O)N(C)[C@@H](CCCC)C(=O)N[C@@H](C)C(=O)N[C@H](C(=O)NCC(=O)O)CSCC(=O)N[C@@H](Cc2ccc(O)cc2)C(=O)N(C)[C@@H](C)C(=O)N[C@@H](CC(N)=O)C(=O)N2CCC[C@H]2C(=O)N[C@@H](Cc2cnc[nH]2)C(=O)N[C@@H](CC(C)C)C(=O)N[C@@H](CCN)C(=O)N[C@@H](Cc2c[nH]c3ccccc23)C(=O)N[C@@H](CO)C(=O)N[C@@H](Cc2c[nH]c3ccccc23)C(=O)N1C [Example 1229]
5 | > 30.5 | > 74.3 | C=CCOC(=O)NCCC[C@@H]1NC(=O)[C@H](CCCC)N(C)C(=O)[C@H](CCCC)N(C)C(=O)[C@H](Cc2csc3ccccc23)NC(=O)[C@H](CCNC(=O)OCC=C)NC(=O)[C@H](Cc2c[nH]c3ccccc23)NC(=O)[C@@H]2C[C@@H](O)CN2C(=O)[C@H](CCC(=O)O)NC(=O)[C@H](Cc2cnc[nH]2)NC(=O)[C@@H]2CCCN2C(=O)[C@H](CCCN)NC(=O)[C@H](C)N(C)C(=O)[C@H](Cc2ccc(O)cc2)NC(=O)CSC[C@@H](C(=O)NCC(N)=O)NC1=O [Example 1230] ({CH2CO}-Y[NMeA][Orn]PHE[Hyp]W[Dab](Alloc)[Bta][NMeNle][NMeNle][Orn](Alloc)CG-NH2; thioether N-14)
6 | 0.385 to 6.74 | 0.158 to 4.71 | CCCC[C@H]1C(=O)N(C)[C@@H](CCCC)C(=O)N[C@@H](C)C(=O)N[C@H](C(N)=O)CSCC(=O)N[C@@H](Cc2ccc(O)cc2)C(=O)N(C)[C@@H](C)C(=O)N[C@@H](CC(=O)O)C(=O)N2CCC[C@H]2C(=O)N[C@@H](Cc2cnc[nH]2)C(=O)N[C@@H](CCCN)C(=O)N2C[C@H](O)C[C@H]2C(=O)N[C@@H](Cc2c[nH]c3ccccc23)C(=O)N[C@@H](CO)C(=O)N[C@@H](Cc2c[nH]c3ccccc23)C(=O)N1C [Example 1231] ({CH2CO}-Y[NMeA]DPH[Orn][Hyp]WSW[NMeNle][NMeNle]AC-NH2; thioether N-14)
7 | 6.76 to 30.3 | 0.158 to 4.71 | CCCC[C@H]1C(=O)N(C)[C@@H](CCCC)C(=O)N[C@@H](CCCNC(=N)N)C(=O)N[C@H](C(=O)NCC(N)=O)CSCC(=O)N[C@@H](Cc2ccc(O)cc2)C(=O)N2CCCC[C@H]2C(=O)N[C@@H](CC(=O)O)C(=O)N2CCC[C@H]2C(=O)N[C@@H](CN)C(=O)N[C@@H](CC(C)C)C(=O)N2C[C@H](O)C[C@H]2C(=O)N[C@@H](Cc2c[nH]c3ccccc23)C(=O)N[C@@H](CO)C(=O)N[C@@H](Cc2c[nH]c3ccccc23)C(=O)N1C [Example 1233] ({CH2CO}-Y[Pip]DP[Dap]L[Hyp]WSW[NMeNle][NMeNle]RCG-NH2; thioether N-14)
8 | 6.76 to 30.3 | 0.158 to 4.71 | CCCC[C@H]1C(=O)N(C)[C@@H](CCCC)C(=O)N[C@@H](CCCN)C(=O)N[C@H](C(=O)NCC(N)=O)CSCC(=O)N[C@@H](Cc2ccc(O)cc2)C(=O)N2CCCC[C@H]2C(=O)N[C@@H](CC(N)=O)C(=O)N2CCC[C@H]2C(=O)N[C@@H](Cc2cnc[nH]2)C(=O)N[C@@H](CCC(=O)O)C(=O)N2C[C@H](O)C[C@H]2C(=O)N[C@@H](Cc2c[nH]c3ccccc23)C(=O)N[C@@H](CO)C(=O)N[C@@H](Cc2c[nH]c3ccccc23)C(=O)N1C [Example 1234] ({CH2CO}-Y[Pip]NPHE[Hyp]WSW[NMeNle][NMeNle][Orn]CG-NH2; thioether N-14)
9 | 6.76 to 30.3 | 0.158 to 4.71 | CCCC[C@H]1C(=O)N(C)[C@@H](CCCC)C(=O)N[C@@H](CCCN)C(=O)N[C@H](C(=O)NCC(N)=O)CSCC(=O)N[C@@H](Cc2ccc(O)cc2)C(=O)N2CCCC[C@H]2C(=O)N[C@@H](CC(=O)O)C(=O)N2CCC[C@H]2C(=O)N[C@@H](CN)C(=O)N[C@@H](CC(C)C)C(=O)N2C[C@H](O)C[C@H]2C(=O)N[C@@H](Cc2c[nH]c3ccccc23)C(=O)N[C@@H](CO)C(=O)N[C@@H](Cc2c[nH]c3ccccc23)C(=O)N1C [Example 1235] ({CH2CO}-Y[Pip]DP[Dap]L[Hyp]WSW[NMeNle][NMeNle][Orn]CG-NH2; thioether N-14)
10 | 6.76 to 30.3 | 0.158 to 4.71 | CCCC[C@H]1C(=O)N(C)[C@@H](CCCC)C(=O)N[C@@H](CCCNC(=N)N)C(=O)N[C@H](C(=O)NCC(N)=O)CSCC(=O)N[C@@H](Cc2ccc(O)cc2)C(=O)N2CCCC[C@H]2C(=O)N[C@@H](CC(N)=O)C(=O)N2CCC[C@H]2C(=O)N[C@@H](CN)C(=O)N[C@@H](CC(C)C)C(=O)N2C[C@H](O)C[C@H]2C(=O)N[C@@H](Cc2c[nH]c3ccccc23)C(=O)N[C@@H](CO)C(=O)N[C@@H](Cc2c[nH]c3ccccc23)C(=O)N1C [Example 1236] ({CH2CO}-Y[Pip]NP[Dap]L[Hyp]WSW[NMeNle][NMeNle]RCG-NH2; thioether N-14)
11 | 6.76 to 30.3 | 4.78 to 72.9 | CCCC[C@H]1C(=O)N(C)[C@@H](CCCC)C(=O)N[C@@H](C)C(=O)N[C@H](C(=O)NCC(=O)O)CSCC(=O)N[C@@H](Cc2ccc(O)cc2)C(=O)N(C)[C@@H](C)C(=O)N[C@@H](CC(N)=O)C(=O)N2CCC[C@H]2C(=O)N[C@@H](Cc2cnc[nH]2)C(=O)N[C@@H](CC(C)C)C(=O)N[C@@H](CCCCN)C(=O)N[C@@H](Cc2c[nH]c3ccccc23)C(=O)N[C@@H](CO)C(=O)N[C@@H](Cc2c[nH]c3ccccc23)C(=O)N1C [Example 1238]
12 | 6.76 to 30.3 | 4.78 to 72.9 | CCCC[C@H]1C(=O)N(C)[C@@H](CCCC)C(=O)N[C@@H](C)C(=O)N[C@H](C(N)=O)CSCC(=O)N[C@@H](Cc2ccc(O)cc2)C(=O)N(C)[C@@H](C)C(=O)N[C@@H](CCC(=O)O)C(=O)N2CCC[C@H]2C(=O)N[C@@H](Cc2cnc[nH]2)C(=O)N[C@@H](CCN)C(=O)N2C[C@H](O)C[C@H]2C(=O)N[C@@H](Cc2c[nH]c3ccccc23)C(=O)N[C@@H](CO)C(=O)N[C@@H](Cc2c[nH]c3ccccc23)C(=O)N1C [Example 1239] ({CH2CO}-Y[NMeA]EPH[Dab][Hyp]WSW[NMeNle][NMeNle]AC-NH2; thioether N-14)
13 | > 30.5 | > 74.3 | CCCC[C@H]1C(=O)N(C)CC(=O)N[C@@H](CC(=O)O)C(=O)N[C@@H](C(C)C)C(=O)N(C)[C@@H](Cc2ccccc2)C(=O)N[C@@H](Cc2ccc(O)cc2)C(=O)N(C)CC(=O)N[C@@H](Cc2c[nH]c3ccccc23)C(=O)N[C@@H](Cc2ccc(O)cc2)C(=O)N[C@@H](CC(C)C)C(=O)N[C@H](C(=O)NCC(N)=O)CSCC(=O)N(C)[C@@H](Cc2ccccc2)C(=O)N1C [Example 3052] (HELM PEPTIDE1{[O=C(C[*:3])[*:2]].[meF].[CCCC[C@@H](C(=O)[*:2])N(C)[*:1]].[Sar].D.V.[meF].Y.[Sar].W.Y.L.C.G.[am]}$PEPTIDE1,PEPTIDE1,1:R3-13:R3$$$V2.0)
14 | > 30.5 | > 74.3 | CCCC[C@H]1C(=O)N(C)CC(=O)N[C@@H](CC(=O)O)C(=O)N[C@@H](C(C)C)C(=O)N(C)[C@@H](Cc2ccccc2)C(=O)N[C@@H](Cc2ccc(O)cc2)C(=O)N(C)CC(=O)N[C@@H](Cc2c[nH]c3ccccc23)C(=O)N[C@@H](Cc2ccc(O)cc2)C(=O)N[C@@H](CC(C)C)C(=O)N[C@H](C(=O)NCC(N)=O)CSCC(=O)N[C@@H](Cc2ccccc2)C(=O)N1C [Example 3053] (HELM PEPTIDE1{[O=C(C[*:3])[*:2]].F.[CCCC[C@@H](C(=O)[*:2])N(C)[*:1]].[Sar].D.V.[meF].Y.[Sar].W.Y.L.C.G.[am]}$PEPTIDE1,PEPTIDE1,1:R3-13:R3$$$V2.0)
